From BindingDB's records for doi:10.1007/s12154-010-0040-8 (Svims University, 2010)

Molecular target: T1, UDP-N-acetylmuramoylalanine--D-glutamate ligase (Leptospira interrogans serogroup Icterohaemorrhagiae serovar Lai (strain 56601), UniProt Q8F7V4)
T1 sequence (Q8F7V4 whole entry): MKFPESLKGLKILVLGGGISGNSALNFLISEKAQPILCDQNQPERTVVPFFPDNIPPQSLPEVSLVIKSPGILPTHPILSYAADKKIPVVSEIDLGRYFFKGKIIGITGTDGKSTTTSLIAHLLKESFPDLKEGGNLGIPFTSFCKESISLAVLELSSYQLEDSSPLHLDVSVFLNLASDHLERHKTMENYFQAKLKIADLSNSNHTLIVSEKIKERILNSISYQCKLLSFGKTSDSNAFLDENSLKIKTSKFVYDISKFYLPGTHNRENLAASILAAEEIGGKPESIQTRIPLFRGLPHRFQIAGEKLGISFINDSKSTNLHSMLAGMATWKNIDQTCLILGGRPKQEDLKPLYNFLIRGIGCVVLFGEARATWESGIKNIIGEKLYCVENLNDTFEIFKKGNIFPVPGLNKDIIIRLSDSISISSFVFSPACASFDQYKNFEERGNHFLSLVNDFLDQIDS
Assay: Inhibition Assay
Source text: Inhibiton assay using MurgD.

Row | IC50 [µM] | Compound
1 | 78 | C[C@H](NS(=O)(=O)Cc1ccc([N+](=O)[O-])cc1)C(=O)N[C@@H](C)P(=O)(O)CC(CCC(=O)O)C(=O)O (stereo partly drawn) [Phosphinate inhibitor 2]
2 | 95 | C[C@@H](NC(=O)C=Cc1ccc2c(c1)OCO2)P(=O)(O)CC(CCC(=O)O)C(=O)O (stereo partly drawn) [Phosphinate inhibitor 1]

Row | Compound | IC50 [µM]
3 | O=C(O)c1cc(C(=O)O)cc(-c2ccc(/C=C3\SC(=S)N(c4ccc5c(c4)OCO5)C3=O)o2)c1 [Benzene 1,3-dicarvboxylic acid inhibitor] | 270
